Experiments:
Assay type in all cases: cell-based, Saccharomyces cerevisiae
[1] = test system: RE700A e PPDR5-HXT7 (ET[PDR]); assay: Growth inhibition of ET[PDR] by 2-DG; details: 20 h 28° C., maltose, in percent of growth of RE700A
Procedure: (§1) (A) RE700A, ECFP and ET[PDR] were incubated 20 h at 28° C. with maltose (2% (w/v)) as the sole carbon source in the presence of the indicated 2-DG concentrations. The optical density was measured at 600 nm every 15 minutes and the integral under the growth curve was calculated. Inhibition of growth of ECFP and ET[PDR] is shown in percent of growth of RE700A. Growth of ECFP was inhibited by 39% at 0.005% (w/v) 2-DG, by 78% at 0.01% (w/v) 2-DG, by 91% at 0.03% (w/v) 2-DG and by 93% at 0.05% (w/v) 2-DG. Growth of ET[PDR] was inhibited by 52% at 0.005% (w/v) 2-DG, by 87% at 0.01% (w/v) 2-DG, by 94% at 0.03% (w/v) 2-DG and by 96% at 0.05% (w/v) 2-DG.
(§2) Strain growth: The growth of the strains in liquid medium was determined by measuring the optical density at 600 nm. To obtain growth curves, measurements were performed every 15 min. Alternatively, start and endpoint (after 12-16 h) measurements were carried out.

[2] = test system: RE700A e PCDR1-HXT7 (ET[CDR1]); assay: Growth inhibition of ET[CDR1] by 2-DG; details: liquid media, 20 h 28° C., compared to growth in the absence of 2-DG
Procedure: FIG. 6: Growth inhibition of RE700A, ET[CDR1] and ET[CDR2] in the presence of increasing 2-DG concentrations after 20 h incubation at 28° C. for in liquid medium. RE700A, ET[CDR1] and ET[CDR2] were incubated 20 h at 28° C. with maltose (2% (w/v)) as the sole carbon source in the presence of increasing 2-DG concentrations in liquid medium. The optical density was measured at 600 nm semi-continuously every 15 minutes and the integral under the growth curve was calculated. Inhibition of growth is shown in percent compared to growth in the absence of 2-DG. Growth of ET[CDR1] was inhibited by 92% at a 2-DG concentration in liquid media of 0.05% (w/v), by 94% at a 2-DG concentration in liquid media of 0.075% (w/v), by 93% at a 2-DG concentration in liquid media of 0.1% (w/v) and by 95% at a 2-DG concentration of 0.2% (w/v). Growth of ET[CDR2] was inhibited by 50% at a 2-DG concentration in liquid media of 0.05% (w/v), by 70% at a 2-DG concentration in liquid media of 0.075% (w/v), by 70% at a 2-DG concentration in liquid media of 0.1% (w/v) and by 84% at a 2-DG concentration of 0.2% (w/v).
(1) Episomal screening system for inhibitors of PCDR1: S. cerevisiae strain RE700A was transformed with plasmids pY-PCDR1-HXT7 and pY-PCDR1-GFP yielding strains ET[CDR1] and CQ[CDR1] (for details see Examples 1 and 2, for the complete genotype refer to Table 1). The inhibition of growth of ET[CDR1] by 2-DG was tested. The growth of this strain was inhibited to more than 90% at a 2-DG concentration of 0.05% (w/v) (FIG. 6). To screen for inhibitors of the PCDR1, the test strain ET[CDR1] can be incubated in selective YNB medium with 2% (w/v) maltose as the carbon source and 0.05% (w/v) 2-DG. Under these non-permissive conditions the growth of the test strain ET[CDR1] was inhibited when PCDR1 was active (FIG. 6).

[3] = test system: RE700A tok1::PPDR5long-HXT7; assay: Growth of RE700A tok1::PPDR5long-HXT7 in the presence of 2-DG; details: RE700A tok1::PPDR5long-HXT7, liquid media, 20 h 28° C.
Procedure: (B) Relative growth of RE700A tok1::PPDR5long-HXT7, RE700A Δpdr1 tok1::PPDR5long-HXT7, RE700A Δpdr3 tok1::PPDR5long-HXT7 and RE700A Δpdr1,3 tok1::PPDR5long-HXT7 in the presence of 2-DG. Cells were incubated for 20 h at 28° C. with 2-DG at different concentrations. […] The standard error of the mean (n=5) is indicated.

[4] = test system: S. cerevisiae strain RE700A; assay: Growth inhibition of RE700A by 2-DG in liquid maltose medium (OD600, integral under growth curve)
Procedure: FIG. 1: Growth inhibition of S. cerevisiae strain RE700A at increasing 2-deoxy-glucose (2-DG) concentrations after incubation at 280 C for 20 h. RE700A was incubated for 20 h at 28° C. with maltose (2% (w/v)) as the sole carbon source and 2-DG at the concentrations indicated. The optical density was measured at 600 nm every 15 minutes and the integral under the growth curve was calculated. Inhibition of growth is shown in percent of growth of RE700A in the absence of 2-DG. The strain grew well in the presence of up to 0.5% (w/v) 2-DG.
as §2
The screening system used Saccharomyces cerevisiae RE700A, a yeast strain deprived of the seven most important glucose transporters (HXT1-7) (Reifenberger, E. et al., Molecular Microbiology 16:157-167 (1995)). The strain is not able to grow on glucose as the sole carbon source. It grows on maltose (2% (w/v)) as the sole carbon source. In addition, the strain grows well on maltose also in the presence of up to 0.5% (w/v) 2-deoxy-glucose (2-DG), a toxic glucose analogue, in the medium (FIG. 1). Growth is inhibited by 50% at a 2-DG concentration in liquid media of ˜1% (w/v) (FIG. 1).

[5] = test system: RE700A e PCUP-HXT7 (ECFP); assay: Growth inhibition of ECFP by 2-DG; details: 20 h 28° C., maltose, in percent of growth of RE700A
Procedure: as §1, §2

**Q.** What does the source list for O=CC[C@@H](O)[C@H](O)[C@H](O)CO [2-DG, 2-deoxy-glucose]?
**A.** Inhibition of growth ([1]; 0.005% (w/v) 2-DG): 52%; Inhibition of growth ([1]; 0.01% (w/v) 2-DG): 87%; Inhibition of growth ([1]; 0.03% (w/v) 2-DG): 94%; Inhibition of growth ([1]; 0.05% (w/v) 2-DG): 96%; Inhibition of growth ([2]; 0.075% (w/v) 2-DG): 94%; Inhibition of growth ([2]; 0.1% (w/v) 2-DG): 93%; Inhibition of growth ([2]; 0.2% (w/v) 2-DG): 95%; 2-DG concentration for 50% growth inhibition [3]: 0,025 % (w/v); 2-DG concentration at which growth is inhibited by 50% ([4]; liquid media, maltose): ~1 % (w/v); 2-DG concentration up to which the strain grows well ([4]; maltose 2% (w/v) sole carbon source, 20 h, 28° C.): up to 0.5 % (w/v); Inhibition of growth ([5]; 0.005% (w/v) 2-DG): 39%; Inhibition of growth ([5]; 0.01% (w/v) 2-DG): 78%; Inhibition of growth ([5]; 0.03% (w/v) 2-DG): 91%; Inhibition of growth ([5]; 0.05% (w/v) 2-DG): 93%

— patent US9121026B2 (priority 2004, dated 2015)
